Several values for one entry are separate records, joined by “and”; a condition that tells them apart may be missing. Equal entries are not always repeated.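 Interpolation was linear, between the two tested concentrations surrounding the appropriate level; five concentrations were tested over 48 hours in 96-well plates. Abbreviation: GI50, concentration required for 50% inhibition of growth. TGI: total growth inhibition.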

The test system of the first assay is KM12 colon. Briefly: NCI tumour cell line growth inhibition, 48 h.
In the case of `N#C/C=C(\c1ccc([N+](=O)[O-])cc1)n1nnc2cc(Cl)c(Cl)cc21`, the GI50 was 2.62 µM and the TGI came out at 11.3 µM.

For `CCN(CC)CCOc1ccc(/C=C2\CC3C4CC=C5C[C@@H](O)CC[C@]5(C)C4CC[C@]3(C)C2=O)cc1OC` (stereo not given in full), the GI50 is 3.34 µM and the TGI is 13.8 µM.

Take `O=C(CC(O)(C(F)(F)F)C(F)(F)F)c1cc(CC(=O)C(O)(C(F)(F)F)C(F)(F)F)cc(CC(=O)C(O)(C(F)(F)F)C(F)(F)F)c1`: the TGI amounted to 2.96 µM.

In turn, `O=c1c2ccccc2sc2cccc(NCCCN3CCN(CCCNc4cccc5sc6ccccc6c(=O)c45)CC3)c12` yielded a TGI greater than 100 µM.

With `Cc1cn2c(/C=C3\C(=O)Nc4ccc(O)cc43)c(-c3ccc(Cl)cc3)nc2s1`, the GI50 was 45.4 µM and the TGI is greater than 100 µM.

Take `CC1(C)OCCn2c1nc1c(N3CCOCC3)nc(-c3cnc(N)nc3)nc12`: the GI50 is 0.761 µM and the TGI is greater than 100 µM.

In the case of `O=C(c1c(F)ccc(NS(=O)(=O)N2CC[C@@H](F)C2)c1F)c1c[nH]c2ncc(-c3cnc(C4CC4)nc3)cc12`, the GI50 is 8.25 µM and 9.66 µM; the TGI was > 10 µM and 33.6 µM.

For the molecule `COc1cc(-c2nn(-c3cccc(NC(=O)Nc4ccc(Cl)c(Cl)c4)c3)cc2-c2ccncc2)ccc1Cl`, the GI50 was 0.811 µM and the TGI turned out to be 2.77 µM.

In the next assay the test system is DU-145 prostate. Briefly: NCI tumour cell line growth inhibition, 48 h.
In the case of `O=C(c1ccc(F)c(F)c1Nc1ccc(I)cc1F)N1CC(O)([C@@H]2CCCCN2)C1`, the GI50 was 3.32 µM and 3.18 µM; the TGI is 19.9 µM and > 10 µM.

In turn, `Oc1cc(O)c2c(c1)OC(c1ccc(O)c(O)c1)C(OC1(c3cc(O)c(O)c(O)c3)Oc3cc(O)cc(O)c3C(O)C1O)C2` (stereo not given) came in with a TGI greater than 75.5 µM.

As to `CCOc1ccc2nc(S/C(=C/C=C(C#N)C#N)c3ccc(C)cc3)sc2c1`, the GI50 is 40.5 µM and the TGI is greater than 100 µM.

In the case of `COc1cc(CNCCCN2C(=O)c3ccc4c5c(ccc(c35)C2=O)C(=O)N(CCCNCc2cc(OC)c(OC)c(OC)c2)C4=O)cc(OC)c1OC`, the GI50 is 0.436 µM and the TGI amounted to 1.11 µM.

With `O=c1[nH]c(=O)n(C2CC(O)C(CO)O2)cc1CO` (stereo not given), the GI50 was greater than 100 µM and the TGI is greater than 100 µM.

Turning to `Cc1nc2cnc(N)c(C#Cc3cncc(C(=O)Nc4ccc(CN5CCN(C)CC5)c(C(F)(F)F)c4)c3)c2nc1C`, the GI50 is 0.409 µM and the TGI was found to be 11.2 µM.

On to `CC(=O)OC12c3ccccc3-c3ccccc3C1C1C(=O)N(C)C(=O)C12Cl` (stereo not given), for which the TGI was greater than 10 µM.

Take `CS(=O)(=O)CCCn1c(=O)c(Oc2ccc(F)cc2F)cc2cnc(NC3CCOCC3)nc21`: the GI50 is greater than 25 µM and the TGI was greater than 25 µM.

On to `N#C/C=C(\c1ccc([N+](=O)[O-])cc1)n1nnc2cc(Cl)c(Cl)cc21`, for which the GI50 was 1.65 µM and the TGI stood at 3.3 µM.

On to `CCN(CC)CCOc1ccc(/C=C2\CC3C4CC=C5C[C@@H](O)CC[C@]5(C)C4CC[C@]3(C)C2=O)cc1OC` (stereo not given in full), for which the GI50 was 9.51 µM and the TGI worked out at 21.4 µM.

The molecule `O=C(CC(O)(C(F)(F)F)C(F)(F)F)c1cc(CC(=O)C(O)(C(F)(F)F)C(F)(F)F)cc(CC(=O)C(O)(C(F)(F)F)C(F)(F)F)c1` showed a TGI greater than 10 µM.

Molecule `O=c1c2ccccc2sc2cccc(NCCCN3CCN(CCCNc4cccc5sc6ccccc6c(=O)c45)CC3)c12` yielded a TGI greater than 100 µM.

`Cc1cn2c(/C=C3\C(=O)Nc4ccc(O)cc43)c(-c3ccc(Cl)cc3)nc2s1`: the GI50 is 10.3 µM and the TGI was found to be 25.2 µM.

For `CC1(C)OCCn2c1nc1c(N3CCOCC3)nc(-c3cnc(N)nc3)nc12`, the GI50 is 0.354 µM and the TGI is greater than 100 µM.

For `O=C(c1c(F)ccc(NS(=O)(=O)N2CC[C@@H](F)C2)c1F)c1c[nH]c2ncc(-c3cnc(C4CC4)nc3)cc12`, the GI50 is 6.03 µM and 5.37 µM; the TGI was greater than 76.8 µM.

With `COc1cc(-c2nn(-c3cccc(NC(=O)Nc4ccc(Cl)c(Cl)c4)c3)cc2-c2ccncc2)ccc1Cl`, the GI50 was 1.52 µM and the TGI amounted to 34.2 µM.

Another assay concerns SF-539 CNS. Briefly: NCI tumour cell line growth inhibition, 48 h.
`O=C(c1ccc(F)c(F)c1Nc1ccc(I)cc1F)N1CC(O)([C@@H]2CCCCN2)C1`: the GI50 is 3.22 µM and > 9.01 µM; the TGI was 18.5 µM and > 10 µM.

Turning to `Oc1cc(O)c2c(c1)OC(c1ccc(O)c(O)c1)C(OC1(c3cc(O)c(O)c(O)c3)Oc3cc(O)cc(O)c3C(O)C1O)C2` (stereo not given), the TGI was greater than 74.9 µM.

Take `CCOc1ccc2nc(S/C(=C/C=C(C#N)C#N)c3ccc(C)cc3)sc2c1`: the GI50 is 26 µM and the TGI came out at 57.2 µM.

`COc1cc(CNCCCN2C(=O)c3ccc4c5c(ccc(c35)C2=O)C(=O)N(CCCNCc2cc(OC)c(OC)c(OC)c2)C4=O)cc(OC)c1OC`: the GI50 was 0.653 µM and the TGI was 1.39 µM.

Turning to `O=c1[nH]c(=O)n(C2CC(O)C(CO)O2)cc1CO` (stereo not given), the GI50 is 21.1 µM and the TGI was greater than 100 µM.

In the case of `Cc1nc2cnc(N)c(C#Cc3cncc(C(=O)Nc4ccc(CN5CCN(C)CC5)c(C(F)(F)F)c4)c3)c2nc1C`, the GI50 is 0.313 µM and the TGI is 3.69 µM.

The molecule `CC(=O)OC12c3ccccc3-c3ccccc3C1C1C(=O)N(C)C(=O)C12Cl` (stereo not given) registered a TGI greater than 10 µM.

Take `CS(=O)(=O)CCCn1c(=O)c(Oc2ccc(F)cc2F)cc2cnc(NC3CCOCC3)nc21`: the GI50 is greater than 25 µM and the TGI was greater than 25 µM.

In the case of `N#C/C=C(\c1ccc([N+](=O)[O-])cc1)n1nnc2cc(Cl)c(Cl)cc21`, the GI50 was 1.77 µM and the TGI is 3.26 µM.

As for `CCN(CC)CCOc1ccc(/C=C2\CC3C4CC=C5C[C@@H](O)CC[C@]5(C)C4CC[C@]3(C)C2=O)cc1OC` (stereo not given in full), the GI50 was 3.38 µM and the TGI came to 12.7 µM.

In turn, `O=C(CC(O)(C(F)(F)F)C(F)(F)F)c1cc(CC(=O)C(O)(C(F)(F)F)C(F)(F)F)cc(CC(=O)C(O)(C(F)(F)F)C(F)(F)F)c1` displayed a TGI of 4.9 µM.

Regarding `O=c1c2ccccc2sc2cccc(NCCCN3CCN(CCCNc4cccc5sc6ccccc6c(=O)c45)CC3)c12`, the TGI was greater than 100 µM.

In the case of `Cc1cn2c(/C=C3\C(=O)Nc4ccc(O)cc43)c(-c3ccc(Cl)cc3)nc2s1`, the GI50 was 17.5 µM and the TGI was 33.9 µM.

On to `CC1(C)OCCn2c1nc1c(N3CCOCC3)nc(-c3cnc(N)nc3)nc12`, for which the GI50 is 0.316 µM and the TGI was determined as 2.55 µM.

As for `O=C(c1c(F)ccc(NS(=O)(=O)N2CC[C@@H](F)C2)c1F)c1c[nH]c2ncc(-c3cnc(C4CC4)nc3)cc12`, the GI50 is 6.74 µM and 6.17 µM; the TGI was > 10 µM and 23.7 µM.

With `COc1cc(-c2nn(-c3cccc(NC(=O)Nc4ccc(Cl)c(Cl)c4)c3)cc2-c2ccncc2)ccc1Cl`, the GI50 is 0.965 µM and the TGI was 3.08 µM.

For the origin of these results see PubChem BioAssay (NCI).
